The results in this text go back to patent US5696117A, “Benzoxazine antimicrobial agents” (Ortho Pharmaceutical Corporation, priority 1995, dated 1997).

One may read the IC50 as the midpoint of a concentration-inhibition curve. A high value points to a need for much substance. Broadly, the MIC is the least concentration at which growth counts as inhibited.

One assay addresses T1, Kinase A and SpoOF (Bacillus subtilis, UniProt P16497).
T1 construct: made in house; host or cells: recombinant E. coli (overexpression)
T1 sequence (P16497 1-606): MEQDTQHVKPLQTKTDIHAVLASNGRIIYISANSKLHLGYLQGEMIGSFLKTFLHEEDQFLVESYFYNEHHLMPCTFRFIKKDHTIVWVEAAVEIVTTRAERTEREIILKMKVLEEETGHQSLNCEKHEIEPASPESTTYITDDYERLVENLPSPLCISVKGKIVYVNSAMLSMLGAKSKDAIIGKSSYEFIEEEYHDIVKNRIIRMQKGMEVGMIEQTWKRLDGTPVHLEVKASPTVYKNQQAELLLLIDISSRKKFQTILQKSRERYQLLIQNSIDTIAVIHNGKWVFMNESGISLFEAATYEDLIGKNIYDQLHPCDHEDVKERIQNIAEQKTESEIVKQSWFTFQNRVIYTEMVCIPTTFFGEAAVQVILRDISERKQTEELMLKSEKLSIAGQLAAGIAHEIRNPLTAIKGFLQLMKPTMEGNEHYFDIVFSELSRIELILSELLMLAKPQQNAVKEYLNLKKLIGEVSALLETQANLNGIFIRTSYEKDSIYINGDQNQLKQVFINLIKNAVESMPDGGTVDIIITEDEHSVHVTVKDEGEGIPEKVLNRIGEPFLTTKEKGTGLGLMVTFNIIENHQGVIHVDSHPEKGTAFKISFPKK
Briefly: Autophosphorylation of Kinase A and Transphosphorylation of SpoOF Assay (HPK in vitro assay). Conditions: inhibition of KinA autophosphorylation / SpoOF transphosphorylation, inhibitor concentrations from 1 to 500 μM. It is filed as biochemical. In short, it runs like this:
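Recombinant KinA and SpoOF (from E. coli) preincubated 15 min on ice with compound (1.0 mM solution in 5% DMSO, stock), then 10 min at room temperature with [32P]ATP. Labelled proteins resolved by SDS gel, quantified by phosphoimager; IC50 from 1–500 μM compound range.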

The next assay relates to gram negative bacteria. The assay is described as follows: MIC antimicrobial assay, microdilution broth method (NCCLS), gram negative bacteria. Type of assay: cell-based. The conditions noted are these: range over the gram negative test organisms; 35° C., 16-20 hours. The protocol: (§1) 2. MIC Anitimicrobial Assay
(§2) The in vitro antimicrobial activity of the compounds was determined by the microdilution broth method following the test method from the National Committee for Laboratory Standards (NCCLS). This method is described in the NCCLS Document M7-A2, Vol. 10, No. 8 "Methods for Dilution Antimicrobial Susceptibility Test for Bacteria that Grow Aerobically--Second Edition."
(§3) In this method two-fold serial dilutions of drug in cation supplemented Mueller-Hinton broth are added to wells in microdilution trays. The test organisms are prepared by adjusting the turbidity of actively growing broth cultures so that the final concentration of test organism after it is added to the wells is approximately 5×10^4 CFUs/well.
(§4) Following inoculation of the microdilution trays, the trays are incubated at 35° C. for 16-20 hours and then read. […] The amount of growth in the wells containing the test compound is compared with the amount of growth in the growth-control wells (no test compound) used in each tray. As set forth in Tables 1 and 2, compounds of the present invention were tested against a variety of Gram+ and Gram- pathogenic bacteria resulting in a range of activities, from 1→128 μg/mL depending on the organism tested. The following test organisms were utilized in the assay:
Escherichia coli oc 2530 ss
Klebsiella pneumoniae oc 1943
Pseudomonas aeroginosa oc 161
Pseudomonas aeroginosa ATCC 27853

The test system of another assay is gram positive bacteria. The assay is described as follows: MIC antimicrobial assay, microdilution broth method (NCCLS), gram positive bacteria. Type of assay: cell-based. The conditions noted are these: range over the gram positive test organisms; 35° C., 16-20 hours. The protocol:
as §1, §2, §3, §4
Enterococcus faecalis ATCC 29212
Enterococcus faecalis oc 3041
Enterococcus faecium oc 2993
Methicillin resistant Staphylococcus aureus oc 2089
Methicillin resistant Staphylococcus aureus oc667
Staphylococcus aureus ATCC 29213
Staphylococcus aureus ATCC 6538
Staphylococcus epidermidis oc 2603
Background: In broth dilution the organism is exposed to a series of concentrations in liquid medium.

SMILES strings stand for the structures. Converted amounts (≈) assume the structure as drawn.

In turn, `CCCCCN1C(=O)C(CCOc2ccc(CCNC(=N)N)cc2)Oc2ccccc21` (stereo not drawn) [Compound 61, 3,4-Dihydro-2-{2-[4-(2-guanidinoethyl)phenoxy]ethyl}-3-oxo-4-pentyl-2H-1,4-benzoxazine] showed an IC50 at Kinase A and SpoOF of 41 µM. For the same compound, the results for the MIC against gram negative bacteria and in the assay on gram positive bacteria were 4 to 64 µg/mL (≈ 9.42 to 151 µM) and 4 to 8 µg/mL (≈ 9.42 to 18.8 µM), respectively.
